Structures can show the parent of a compound that is named as a salt. Where two headings read alike, the source gives them in different places.
Key:
[1] = target: DNMT1 (Homo sapiens, UniProt P26358); assay: DNMT1 biochemical activity, breaklight assay and/or SPA assay
[2] = tested on: erythroid progenitor cells (EPCs); assay: Fetal hemoglobin (HbF) ELISA in day 7 erythroid progenitor cells; type: cell-based, human; conditions: Homo sapiens, Erythroid progenitor cell, HbF ELISA, day 7 EPCs, 5 days; read-out: EPC ELISA (pEC50 category) (converted);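 further: for fetal hemoglobin induction normalized to vehicle-treated cells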
In short: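 HbF induction was read by anti-HbF sandwich ELISA (HRP/TMB, OD450) on lysates and normalized to vehicle-treated cells. Cells were day 7 erythroid progenitors derived from human bone marrow CD34+ cells, seeded at 1,000/well with 3 U/mL rhEPO. Compound was given for 5 days at 37 °C at final concentrations […].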

[3] = binned activity in either the breaklight or the SPA assay
[4] = binned activity in either the breaklight or the SPA assay, read-out: DNMT1 BioChemical (pIC50 category) (converted)
[5] = breaklight assay and/or SPA assay, repeated experimental runs, read-out: average pIC50 against DNMT1 (converted)

Sequence of DNMT1 (P26358 whole entry, looked up): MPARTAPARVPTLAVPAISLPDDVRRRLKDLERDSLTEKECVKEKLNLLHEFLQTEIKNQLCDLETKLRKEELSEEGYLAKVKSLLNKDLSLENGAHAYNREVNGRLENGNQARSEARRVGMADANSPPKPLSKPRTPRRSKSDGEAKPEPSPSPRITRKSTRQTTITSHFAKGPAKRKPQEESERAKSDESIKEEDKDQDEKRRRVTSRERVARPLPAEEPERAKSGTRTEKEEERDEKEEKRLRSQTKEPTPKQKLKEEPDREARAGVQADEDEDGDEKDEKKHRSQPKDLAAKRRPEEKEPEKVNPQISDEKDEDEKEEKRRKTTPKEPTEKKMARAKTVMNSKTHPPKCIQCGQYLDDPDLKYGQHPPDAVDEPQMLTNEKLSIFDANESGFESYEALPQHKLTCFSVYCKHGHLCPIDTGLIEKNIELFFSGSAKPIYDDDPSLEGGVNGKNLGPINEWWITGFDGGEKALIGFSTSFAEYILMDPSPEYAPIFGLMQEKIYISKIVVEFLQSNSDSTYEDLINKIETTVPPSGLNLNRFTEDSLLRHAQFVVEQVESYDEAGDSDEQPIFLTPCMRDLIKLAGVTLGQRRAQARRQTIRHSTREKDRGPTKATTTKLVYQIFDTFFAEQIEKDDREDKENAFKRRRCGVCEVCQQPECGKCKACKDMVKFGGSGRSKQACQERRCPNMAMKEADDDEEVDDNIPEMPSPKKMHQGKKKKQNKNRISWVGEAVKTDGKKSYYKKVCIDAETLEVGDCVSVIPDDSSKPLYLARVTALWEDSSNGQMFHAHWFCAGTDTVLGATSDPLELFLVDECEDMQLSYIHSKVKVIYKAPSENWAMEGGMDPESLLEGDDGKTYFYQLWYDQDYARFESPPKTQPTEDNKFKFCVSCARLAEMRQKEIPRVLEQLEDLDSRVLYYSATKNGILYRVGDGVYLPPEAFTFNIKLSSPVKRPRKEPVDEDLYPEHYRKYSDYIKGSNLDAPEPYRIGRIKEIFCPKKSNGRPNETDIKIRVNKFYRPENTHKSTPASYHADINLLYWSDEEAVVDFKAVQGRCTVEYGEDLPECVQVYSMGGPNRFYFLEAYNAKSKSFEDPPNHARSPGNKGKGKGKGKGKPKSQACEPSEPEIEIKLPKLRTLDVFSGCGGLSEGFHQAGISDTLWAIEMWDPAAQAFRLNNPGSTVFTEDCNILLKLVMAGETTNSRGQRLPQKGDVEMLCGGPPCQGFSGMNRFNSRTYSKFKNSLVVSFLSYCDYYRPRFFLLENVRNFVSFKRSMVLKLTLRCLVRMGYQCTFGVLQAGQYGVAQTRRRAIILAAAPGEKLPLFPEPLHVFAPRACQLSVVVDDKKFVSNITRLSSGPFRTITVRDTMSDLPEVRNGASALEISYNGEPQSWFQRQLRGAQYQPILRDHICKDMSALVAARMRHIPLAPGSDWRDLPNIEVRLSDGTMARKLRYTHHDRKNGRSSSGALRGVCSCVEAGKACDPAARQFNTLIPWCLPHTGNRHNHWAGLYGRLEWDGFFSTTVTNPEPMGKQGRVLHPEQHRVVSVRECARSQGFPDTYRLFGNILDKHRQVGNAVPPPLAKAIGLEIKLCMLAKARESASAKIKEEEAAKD

SMILES	DNMT1 BioChemical (pIC50 category) [1, 3]	EC50 [2]	average pIC50 against DNMT1 ([1]; breaklight assay and/or SPA assay, repeated experimental runs)	IC50 [1, 4]	IC50 [1, 5]
CCc1c(C#N)c(SCc2ccc(N(C)S(C)(=O)=O)cc2)nc(N(C)CCNC)c1C#N [Example 471, N-(4-(((3,5-dicyano-4-ethyl-6-(methyl(2-(methylamino)ethyl)amino)pyridin-2-yl)thio)methyl)phenyl)-N-methylmethanesulfonamide]	D (Category D: ≥6.5)	< 0.316 µM			
CCc1c(C#N)c(S[C@@H](C(N)=O)c2ccccc2)nc(N2CC[C@@H](N)[C@H](F)C2)c1C#N [Example 518, (R)-2-((6-((3R,4R)-4-amino-3-fluoropiperidin-1-yl)-3,5-dicyano-4-ethylpyridin-2-yl)thio)-2-phenylacetamide, Trifluoroacetic acid salt]	D (Category D: ≥6.5)	< 0.316 µM			
COc1c(C#N)c(SC(C(N)=O)c2ccccc2)nc(N(C)C)c1C#N (centres unmarked) [Example 191, 2-((3,5-Dicyano-6-(dimethylamino)-4-methoxypyridin-2-yl)thio)-2-phenylacetamide]	D (Category D: ≥6.5)	0.316 to 1 µM			
CCc1c(C#N)c(SC(C(N)=O)c2ccccc2)nc(N2CCC(NC(=O)CN)CC2)c1C#N (centres unmarked) [Example 137, 2-Amino-N-(1-(6-((2-amino-2-oxo-1-phenylethyl)thio)-3,5-dicyano-4-ethylpyridin-2-yl)piperidin-4-yl)acetamide, Trifluoroacetic Acid Salt]	D (Category D: ≥6.5)	0.316 to 1 µM	> 6.5		
CCc1c(C#N)c(SC(C(N)=O)c2ccccc2)nc(N2CCC(N(C)CC(C)(C)OC)CC2)c1C#N (centres unmarked) [Example 492, 2-((3,5-dicyano-4-ethyl-6-(4-((2-methoxy-2-methylpropyl)(methyl)amino)piperidin-1-yl)pyridin-2-yl)thio)-2-phenylacetamide]	D (Category D: ≥6.5)	< 0.316 µM			
CCc1c(C#N)c(SCc2ccc(/C=C/C(=O)O)cc2)nc(N(C)C)c1C#N [Example 102, (E)-3-(4-(((3,5-Dicyano-6-(dimethylamino)-4-ethylpyridin-2-yl)thio)methyl)phenyl)acrylic acid, Trifluoroacetic Acid Salt]		> 31.6 µM		1 to 31.6 µM	≥ 1 µM
CCc1c(C#N)c(SCc2ccc(-c3cccnc3)cc2)nc(N2CCC(N3CCCC3)CC2)c1C#N [Example 337, 4-Ethyl-2-((4-(pyridin-3-yl)benzyl)thio)-6-(4-(pyrrolidin-1-yl)piperidin-1-yl)pyridine-3,5-dicarbonitrile]		> 31.6 µM		0.316 to 1 µM	3.16 µM
CCc1c(C#N)c(SCc2ccc(CNC(C)=O)cc2)nc(N2CCC(OCCOC(=O)[C@@H](N)C(C)C)CC2)c1C#N [Example 264, (S)-2-((1-(6-((4-(Acetamidomethyl)benzyl)thio)-3,5-dicyano-4-ethylpyridin-2-yl)piperidin-4-yl)oxy)ethyl 2-amino-3-methylbutanoate]		> 31.6 µM		1 to 31.6 µM	
CCc1c(C#N)c(SC(C(N)=O)c2cccc(OCCN(C)C)c2)nc(N(C)C)c1C#N (centres unmarked) [Example 407, 2-(3,5-dicyano-6-(dimethylamino)-4-ethylpyridin-2-ylthio)-2-(3-(2-(dimethylamino)ethoxy)phenyl)acetamide]	D (Category D: ≥6.5)	1 to 31.6 µM			
CCc1c(C#N)c(SCc2ccc(NS(C)(=O)=O)cc2)nc(N2CCCN(C)CC2)c1C#N [Example 299, N-(4-(((3,5-Dicyano-4-ethyl-6-(4-methyl-1,4-diazepan-1-yl)pyridin-2-yl)thio)methyl)phenyl) methanesulfonamide]	D (Category D: ≥6.5)	0.316 to 1 µM			
CCc1c(C#N)c(SC(C(N)=O)c2ccccc2)nc(N2CCC(NCc3ccc(F)cc3)CC2)c1C#N (centres unmarked) [Example 474, 2-((3,5-dicyano-4-ethyl-6-(4-((4-fluorobenzyl)amino)piperidin-1-yl)pyridin-2-yl)thio)-2-phenylacetamide]	D (Category D: ≥6.5)	< 0.316 µM			
CCc1c(C#N)c(SC(C(N)=O)c2ccccc2)nc(N(C)C2CCN(C)C2)c1C#N (centres unmarked) [Example 699, 2-((3,5-dicyano-4-ethyl-6-(methyl(1-methylpyrrolidin-3-yl)amino)pyridin-2-yl)thio)-2-phenylacetamide]		1 to 31.6 µM		0.316 to 1 µM	
CCc1c(C#N)c(SCc2ccc3c(c2)CCN(C(C)=O)C3)nc(N(C)C)c1C#N [Example 92, 2-(((2-Acetyl-1,2,3,4-tetrahydroisoquinolin-6-yl)methyl)thio)-6-(dimethylamino)-4-ethylpyridine-3,5-dicarbonitrile]		1 to 31.6 µM		0.316 to 1 µM	≥ 1 µM
CCc1c(C#N)c(SCc2ccc(N(C)S(C)(=O)=O)cc2)nc(N(C)CCN(CC)CC)c1C#N [Example 579, N-(4-(((3,5-dicyano-6-((2-(diethylamino)ethyl)(methyl)amino)-4-ethylpyridin-2-yl)thio)methyl)phenyl)-N-methylmethanesulfonamide]	D (Category D: ≥6.5)	< 0.316 µM			
CCc1c(C#N)c(SCc2ccc(OCCN(C)C)cc2)nc(N2CCCN(C)CC2)c1C#N [Example 377, 2-(4-(2-(Dimethylamino)ethoxy)benzylthio)-4-ethyl-6-(4-methyl-1,4-diazepan-1-yl)pyridine-3,5-dicarbonitrile]		> 31.6 µM		1 to 31.6 µM	≥ 1 µM
CCc1c(C#N)c(SC(C(N)=O)c2ccc(C(=O)c3ccccc3)cc2)nc(N2CCCN(CCO)CC2)c1C#N (centres unmarked) [Example 245, 2-(4-Benzoylphenyl)-2-((3,5-dicyano-4-ethyl-6-(4-(2-hydroxyethyl)-1,4-diazepan-1-yl)pyridin-2-yl)thio)acetamide]		0.316 to 1 µM		0.316 to 1 µM	
CCc1c(C#N)c(SC(C(N)=O)c2ccncc2)nc(N2CCN(C)C(=O)C2)c1C#N (centres unmarked) [Example 10, 2-{[3,5-dicyano-4-ethyl-6-(4-methyl-3-oxopiperazin-1-yl)pyridin-2-yl]sulfanyl}-2-(pyridin-4-yl)acetamide]		> 31.6 µM		0.316 to 1 µM	
CCc1c(C#N)c(SCc2ccc(CN)cc2)nc(N2CCCN(C)CC2)c1C#N [Example 71, 2-((4-(Aminomethyl)benzyl)thio)-4-ethyl-6-(4-methyl-1,4-diazepan-1-yl)pyridine-3,5-dicarbonitrile, 2Hydrochloride]	D (Category D: ≥6.5)	> 31.6 µM			
N#Cc1c(N2CCCNCC2)nc(SC(C(N)=O)c2ccccc2)c2c1CCC2 (centres unmarked) [Example 171, 2-((4-Cyano-3-(1,4-diazepan-1-yl)-6,7-dihydro-5H-cyclopenta[c]pyridin-1-yl)thio)-2-phenylacetamide]		> 31.6 µM		0.316 to 1 µM	
CCc1c(C#N)c(SC(C(N)=O)c2ccccc2)nc(N2CCC(O)(C(N)=O)CC2)c1C#N (centres unmarked) [Example 258, 1-(6-((2-Amino-2-oxo-1-phenylethyl)thio)-3,5-dicyano-4-ethylpyridin-2-yl)-4-hydroxy piperidine-4-carboxamide]		1 to 31.6 µM		0.316 to 1 µM	
CCc1c(C#N)c(SC(C(N)=O)c2ccccc2)nc(N2CCN(Cc3ccoc3)CC2)c1C#N (centres unmarked) [Example 200, 2-((3,5-Dicyano-4-ethyl-6-(4-(furan-3-ylmethyl)piperazin-1-yl)pyridin-2-yl)thio)-2-phenylacetamide]		1 to 31.6 µM		0.316 to 1 µM	
